Our source for the IC50 values is patent US12565497B2 (Hoffmann-La Roche Inc., priority 2020, dated 2026).

Where a name gives a salt, the structure may show the parent alone. A value given as a limit tells only on which side of the number the result lay.

This test has as its target Recombinant human Mat2a (Homo sapiens (Human), UniProt P31153). In words: Determination of Mat2A activity (384 well absorbance-based assay, Biomol Green). Type of test: biochemical. To be noted: 12.5 nM Mat2A, 100 μM ATP and Methionine, 2% DMSO, 120 minutes at RT, absorbance at 635 nm; read-out: MAT2A_LEC IC50 (uM) (Num). As to the method:
Determination of Mat2A Activity
Measurement of Mat2A inhibition is performed in 384 well format absorbance-based assay. Recombinant human Mat2a (12.5 nM) and serial diluted compounds in DMSO (range of concentrations from 10 μM to 508 pM) or controls (DMSO) are incubated for 15 minutes at room temperature (RT) in assay buffer containing 50 mM HEPES pH 7.5, 50 mM KCl, 50 mM MgCl2, 0.01%Tween 20 and 10 mM DTT. The reaction is initiated by the addition of the combined substrates ATP and Methionine, each at a final concentration of 100 μM. Final assay condition are 12.5 nM Mat2A, 100 μM ATP and Methionine Substrates and 2% DMSO. After 120 minutes of incubation at RT, the reaction is stopped by the addition of Biomol Green. The absorbance signal is measured at λ=635 nm with a multiplate reader (BMG Pherastar reader or equivalent) after 30 min of equilibration at RT.

Sequence of Recombinant human Mat2a (P31153 whole entry): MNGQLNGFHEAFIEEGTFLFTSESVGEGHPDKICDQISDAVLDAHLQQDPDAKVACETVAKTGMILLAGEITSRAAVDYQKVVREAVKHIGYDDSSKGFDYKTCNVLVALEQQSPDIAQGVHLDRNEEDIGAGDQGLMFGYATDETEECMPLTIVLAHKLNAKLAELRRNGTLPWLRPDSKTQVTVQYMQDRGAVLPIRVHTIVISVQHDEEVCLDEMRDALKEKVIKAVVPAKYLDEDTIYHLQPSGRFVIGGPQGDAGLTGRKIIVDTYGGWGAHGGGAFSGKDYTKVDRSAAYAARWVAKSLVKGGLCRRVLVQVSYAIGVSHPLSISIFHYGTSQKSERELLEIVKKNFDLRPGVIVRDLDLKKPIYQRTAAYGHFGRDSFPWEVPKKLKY

As to `Cc1cc(-c2nccc3[nH]nc(C4CC4)c23)ccc1[S+](C)[O-]` (stereo not shown) [Example 23, 3-cyclopropyl-4-(3-methyl-4-methylsulfmyl-phenyl)-1H-pyrazolo[4,3-c]pyridine hydrochloride], the IC50 came out at 0.083 µM. Then `CNC(=O)c1ncc2[nH]nc(C3CC3)c2c1-c1ccc(S(=O)(=O)C2CC2)c(C)c1` [Example 46, 3-cyclopropyl-4-(4-cyclopropylsulfonyl-3-methyl-phenyl)-N-methyl-1H-pyrazolo[3,4-c]pyridine-5-carboxamide], with under 0.013 µM; and `CNS(=O)(=O)c1ccc(-c2nccc3[nH]nc(OC(F)F)c23)cc1C` [Example 33, 4-[3-(difluoromethoxy)-1H-pyrazolo[4,3-c]pyridin-4-yl]-N,2-dimethyl-benzenesulfonamide], with 0.029 µM. With `CCCS(=O)(=O)c1ccc(-c2nccc3[nH]nc(OC(F)F)c23)cc1C` [Example 30] the figure was 0.057 µM; with `Cc1cc(-c2nccc3[nH]nc(C4CC4)c23)ccc1S(C)(=O)=O` [Example 1, 3-cyclopropyl-4-(3-methyl-4-(methylsulfonyl)phenyl)-1H-pyrazolo[4,3-c]pyridine], 0.048 µM; with `CS(=O)(=O)c1ccc(-c2nccc3[nH]nc(OC(F)F)c23)cc1C(F)F` [Example 31], 0.033 µM.

Consider `Cc1cc(-c2c(C#N)ncc3[nH]nc(OC(F)F)c23)ccc1S(C)(=O)=O` [Example 52, 3-(difluoromethoxy)-4-(3-methyl-4-methylsulfonyl-phenyl)-1H-pyrazolo[3,4-c]pyridine-5-carbonitrile], for which the IC50 is under 0.013 µM. Then `Cc1cc(-c2c(C(N)=O)ncc3[nH]nc(OC(F)F)c23)ccc1S(=O)(=O)C1CC1` [Example 116, 4-(4-cyclopropylsulfonyl-3-methyl-phenyl)-3-(difluoromethoxy)-1H-pyrazolo[3,4-c]pyridine-5-carboxamide], with under 0.013 µM. For `COCS(=O)(=O)c1ccc(-c2nccc3[nH]nc(OC(F)F)c23)cc1C` [Example 38, 3-(difluoromethoxy)-4-[4-(methoxymethylsulfonyl)-3-methyl-phenyl]-1H-pyrazolo[4,3-c]pyridine], the half-maximal inhibitory concentration (IC50) was determined as 0.021 µM. Then `COc1cc(-c2nccc3[nH]nc(C4CC4)c23)ccc1S(C)(=O)=O` [Example 2, 3-cyclopropyl-4-(3-methoxy-4-(methylsulfonyl)phenyl)-1H-pyrazolo[4,3-c]pyridine], with 0.37 µM; and `COc1ncc2[nH]nc(C(F)(F)F)c2c1-c1ccc(S(C)(=O)=O)c(C)c1` [Example 39, 5-methoxy-4-(3-methyl-4-(methylsulfonyl)phenyl)-3-(trifluoromethyl)-1H-pyrazolo[3,4-c]pyridine], with under 0.013 µM; and `Cc1cc(-c2nncc3[nH]nc(C4CC4)c23)ccc1S(C)(=O)=O` [Example 74, 3-cyclopropyl-4-(3-methyl-4-(methylsulfonyl)phenyl)-1H-pyrazolo[3,4-d]pyridazine], with 0.11 µM. Turning to `Cc1cc(-c2c(C(=O)N(C)C)ncc3[nH]nc(C4CC4)c23)ccc1S(C)(=O)=O` [Example 83, 3-cyclopropyl-N,N-dimethyl-4-(3-methyl-4-(methylsulfonyl)phenyl)-1H-pyrazolo[3,4-c]pyridine-5-carboxamide], the half-maximal inhibitory concentration (IC50) is 0.5 µM. Then `Cc1cc(-c2nccc3[nH]nc(OC(F)(F)F)c23)ccc1S(C)(=O)=O` [Example 71, 4-(3-methyl-4-(methylsulfonyl)phenyl)-3-(trifluoromethoxy)-1H-pyrazolo[4,3-c]pyridine], with under 0.013 µM. Then `CS(=O)(=O)c1ccc(-c2nccc3[nH]nc(C4CC4)c23)cc1C(F)(F)F` [Example 4, 3-cyclopropyl-4-(4-(methylsulfonyl)-3-(trifluoromethyl)phenyl)-1H-pyrazolo[4,3-c]pyridine], with 0.24 µM.

On to `CS(=O)(=O)c1ccc(-c2nccc3[nH]nc(C4CC4)c23)cc1C(F)F` [Example 12, 3-cyclopropyl-4-(3-(difluoromethyl)-4-(methylsulfonyl)phenyl)-1H-pyrazolo[4,3-c]pyridine], for which the IC50 amounted to 0.22 µM.

For orientation: IC50 means the concentration that inhibits the measured activity by half.
